The target of series [1] is T1, Activated CDC42 kinase 1 (Homo sapiens, UniProt Q07912).
Target sequence in this assay (Q07912 whole entry): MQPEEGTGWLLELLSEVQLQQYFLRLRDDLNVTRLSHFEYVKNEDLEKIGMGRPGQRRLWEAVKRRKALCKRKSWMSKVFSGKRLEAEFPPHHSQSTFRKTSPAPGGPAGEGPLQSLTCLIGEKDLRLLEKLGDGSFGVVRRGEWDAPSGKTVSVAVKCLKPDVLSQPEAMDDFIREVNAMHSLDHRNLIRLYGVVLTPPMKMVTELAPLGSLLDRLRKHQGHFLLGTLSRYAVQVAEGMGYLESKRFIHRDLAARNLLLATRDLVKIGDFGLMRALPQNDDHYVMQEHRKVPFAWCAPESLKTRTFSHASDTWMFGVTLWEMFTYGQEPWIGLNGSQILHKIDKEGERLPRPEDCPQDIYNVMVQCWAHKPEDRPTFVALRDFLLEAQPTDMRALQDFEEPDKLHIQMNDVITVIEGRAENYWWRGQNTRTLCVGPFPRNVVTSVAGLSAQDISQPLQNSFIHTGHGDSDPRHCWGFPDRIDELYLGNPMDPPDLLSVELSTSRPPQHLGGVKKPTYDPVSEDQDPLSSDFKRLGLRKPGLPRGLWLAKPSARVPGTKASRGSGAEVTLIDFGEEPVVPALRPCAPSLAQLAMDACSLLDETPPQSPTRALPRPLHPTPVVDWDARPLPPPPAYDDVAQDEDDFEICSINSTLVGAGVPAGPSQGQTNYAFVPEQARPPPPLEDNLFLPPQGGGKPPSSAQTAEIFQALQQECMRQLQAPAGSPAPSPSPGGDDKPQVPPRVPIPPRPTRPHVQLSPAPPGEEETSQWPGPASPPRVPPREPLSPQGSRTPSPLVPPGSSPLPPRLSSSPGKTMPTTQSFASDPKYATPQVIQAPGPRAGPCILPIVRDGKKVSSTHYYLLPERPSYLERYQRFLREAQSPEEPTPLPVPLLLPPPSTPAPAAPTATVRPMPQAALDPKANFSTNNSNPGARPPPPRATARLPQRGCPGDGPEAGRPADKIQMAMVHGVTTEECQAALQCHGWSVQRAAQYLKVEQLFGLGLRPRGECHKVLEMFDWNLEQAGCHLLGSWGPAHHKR
Series [2] addresses T1, Activated CDC42 kinase 1. This is another data set of the same source.
Target sequence in this assay (Q07912 whole entry): as above
Series [3] is described as follows: Clearance in mouse at 2 mg/kg, iv. It is filed as ADME, organism-based. Details: dose 2 mg/kg, route intravenous. The following applies: in vivo.
Series [4] in a line: Volume of distribution at steady state in mouse at 2 mg/kg, iv. The following applies: in vivo, read-out: Vdss. It is filed as ADME, organism-based. More on the design: dose 2 mg/kg, route intravenous.
The nature of series [5]: Half life in mouse at 20 mg/kg, po. The format is ADME, organism-based. Details: dose 20 mg/kg, route oral. The following applies: in vivo.
Series [6] is described as follows: (§1) Oral bioavailability in mouse at 20 mg/kg. The format is ADME, organism-based. The following applies: in vivo.
Series [7] can be described thus: AUC in mouse at 20 mg/kg, po. It is filed as ADME, organism-based. Details: dose 20 mg/kg, route oral. Conditions: plasma.
Series [8] can be described thus: Cmax in mouse at 20 mg/kg, po. Details: dose 20 mg/kg, route oral. It is filed as ADME, organism-based. The following applies: in vivo.
Series [9] concerns the target T2, Tyrosine-protein kinase TXK (Homo sapiens) (UniProt P42681).
T2 sequence (whole entry): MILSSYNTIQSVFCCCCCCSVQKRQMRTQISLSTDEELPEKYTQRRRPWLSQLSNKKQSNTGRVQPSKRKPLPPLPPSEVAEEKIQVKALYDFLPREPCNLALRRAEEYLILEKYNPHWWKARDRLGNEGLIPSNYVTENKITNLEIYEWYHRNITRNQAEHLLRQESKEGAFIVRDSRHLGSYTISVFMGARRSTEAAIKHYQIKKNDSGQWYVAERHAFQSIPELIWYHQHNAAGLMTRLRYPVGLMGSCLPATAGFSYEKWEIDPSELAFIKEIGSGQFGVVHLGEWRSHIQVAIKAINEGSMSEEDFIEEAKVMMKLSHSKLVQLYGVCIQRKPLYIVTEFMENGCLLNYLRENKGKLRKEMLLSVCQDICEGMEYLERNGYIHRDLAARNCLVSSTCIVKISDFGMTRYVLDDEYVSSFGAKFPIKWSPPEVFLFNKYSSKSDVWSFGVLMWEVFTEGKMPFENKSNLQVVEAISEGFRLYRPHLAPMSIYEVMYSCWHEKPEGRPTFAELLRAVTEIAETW
Kind of series: Inhibition of TXK (unknown origin) at 1 uM.

Series [10] concerns the target Tyrosine-protein kinase Yes (Homo sapiens) (UniProt P07947). Description: Inhibition of YES (unknown origin) at 1 uM.
Series [11] deals with Tyrosine-protein kinase Srms (Homo sapiens) (UniProt Q9H3Y6). Kind of series: Inhibition of SRMS (unknown origin) at 1 uM.
The target in series [12] is T3, Tyrosine-protein kinase Tec (Homo sapiens) (UniProt P42680).
T3 sequence (whole entry): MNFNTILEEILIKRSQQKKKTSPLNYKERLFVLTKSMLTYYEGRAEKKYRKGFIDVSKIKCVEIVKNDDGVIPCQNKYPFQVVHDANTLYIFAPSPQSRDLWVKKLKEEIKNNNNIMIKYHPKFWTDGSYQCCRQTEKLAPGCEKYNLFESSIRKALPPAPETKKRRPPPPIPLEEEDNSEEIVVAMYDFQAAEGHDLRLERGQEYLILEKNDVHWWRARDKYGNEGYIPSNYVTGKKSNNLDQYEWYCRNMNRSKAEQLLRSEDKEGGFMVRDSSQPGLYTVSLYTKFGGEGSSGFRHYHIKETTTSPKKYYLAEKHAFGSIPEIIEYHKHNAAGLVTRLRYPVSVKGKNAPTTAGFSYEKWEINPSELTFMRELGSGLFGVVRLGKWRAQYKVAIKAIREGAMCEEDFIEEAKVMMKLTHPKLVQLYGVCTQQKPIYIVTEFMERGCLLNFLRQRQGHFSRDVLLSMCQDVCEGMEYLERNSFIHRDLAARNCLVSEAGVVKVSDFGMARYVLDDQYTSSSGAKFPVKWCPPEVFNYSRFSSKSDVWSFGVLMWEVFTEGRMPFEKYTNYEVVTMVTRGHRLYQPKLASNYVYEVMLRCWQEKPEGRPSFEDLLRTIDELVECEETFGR
Description: Inhibition of TEC (unknown origin) at 1 uM.

Series [13] addresses Proto-oncogene tyrosine-protein kinase Src (Homo sapiens) (UniProt P12931). Kind of series: Inhibition of SRC (unknown origin) at 1 uM.
Series [14] has as its target Tyrosine-protein kinase Lyn (Homo sapiens) (UniProt P07948). Description: Inhibition of LYNB (unknown origin) at 1 uM.
Series [15] addresses Tyrosine-protein kinase Lck (Homo sapiens) (UniProt P06239). Description: Inhibition of LCK (unknown origin) at 1 uM.
For series [16], the target named is Tyrosine-protein kinase HCK (Homo sapiens) (UniProt P08631). Description: Inhibition of HCK (unknown origin) at 1 uM.
Series [17] addresses Tyrosine-protein kinase Fyn (Homo sapiens) (UniProt P06241). Kind of series: Inhibition of FYN (unknown origin) at 1 uM.
In series [18] the target is Tyrosine-protein kinase Fgr (Homo sapiens) (UniProt P09769). Description: Inhibition of FGR (unknown origin) at 1 uM.
Series [19] addresses Tyrosine-protein kinase FRK (Homo sapiens) (UniProt P42685). Description: Inhibition of FRK (unknown origin) at 1 uM.
In series [20] the target is Tyrosine-protein kinase Blk (Homo sapiens) (UniProt P51451). Description: Inhibition of BLK (unknown origin) at 1 uM.
Series [21] is described as follows: Permeability of the compound by PAMPA at pH 7.4. It is filed as ADME. Conditions: read-out: permeability.
A short description of series [22]: Permeability of the compound by PAMPA at pH 5. Conditions: read-out: permeability. The format is ADME. (In general: The PAMPA barrier holds no transporters, so it reflects passive diffusion.)
Series [23] is described as follows: Aqueous solubility of the compound at pH 7.4. It is filed as physicochemical.
The target in series [24] is Cytochrome P450 3A4 (Homo sapiens, UniProt P08684). Kind of series: Inhibition of CYP3A4 (unknown origin). It is filed as ADME.
Series [25] has as its target Cytochrome P450 2D6 (Homo sapiens, UniProt P10635). Description: Inhibition of CYP2D6 (unknown origin). The format is ADME.
In series [26] the target is Cytochrome P450 2C9 (Homo sapiens, UniProt P11712). Description: Inhibition of CYP2C9 (unknown origin). It is filed as ADME.
Series [27] concerns the target T4, Cytochrome P450 1A2 (Homo sapiens, UniProt P05177).
T4 sequence (P05177 whole entry): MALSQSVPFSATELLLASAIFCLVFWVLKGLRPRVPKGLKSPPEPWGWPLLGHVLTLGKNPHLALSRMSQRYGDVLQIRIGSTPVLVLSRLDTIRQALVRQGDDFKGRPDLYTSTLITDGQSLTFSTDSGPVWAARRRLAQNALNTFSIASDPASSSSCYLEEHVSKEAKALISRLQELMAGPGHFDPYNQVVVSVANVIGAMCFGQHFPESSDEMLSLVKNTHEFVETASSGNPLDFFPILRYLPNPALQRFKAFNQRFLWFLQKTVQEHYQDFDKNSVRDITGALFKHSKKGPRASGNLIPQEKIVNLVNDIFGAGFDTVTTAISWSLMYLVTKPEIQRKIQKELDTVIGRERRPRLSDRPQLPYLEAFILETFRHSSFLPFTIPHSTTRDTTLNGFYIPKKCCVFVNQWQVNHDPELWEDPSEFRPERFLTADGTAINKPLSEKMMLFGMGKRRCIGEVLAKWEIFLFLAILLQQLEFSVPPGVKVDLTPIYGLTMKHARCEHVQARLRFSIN
Description: Inhibition of CYP1A2 (unknown origin). The format is ADME.

Series [28] addresses T1, Activated CDC42 kinase 1. Conditions: 1 uM.
Target sequence in this assay (Q07912 whole entry, looked up): as the sequence (Q07912 whole entry) above
In series [29] the test system is Mus musculus. The series is described as §1. It is filed as ADME, organism-based. The following applies: in vivo.

We go through 10 molecules from ChEMBL document CHEMBL2321683, “Discovery of potent, selective and orally bioavailable imidazo[1,5-a]pyrazine derived ACK1 inhibitors” (Bioorg Med Chem Lett, 2013).

Sequence of Cytochrome P450 2C9 (P11712 whole entry): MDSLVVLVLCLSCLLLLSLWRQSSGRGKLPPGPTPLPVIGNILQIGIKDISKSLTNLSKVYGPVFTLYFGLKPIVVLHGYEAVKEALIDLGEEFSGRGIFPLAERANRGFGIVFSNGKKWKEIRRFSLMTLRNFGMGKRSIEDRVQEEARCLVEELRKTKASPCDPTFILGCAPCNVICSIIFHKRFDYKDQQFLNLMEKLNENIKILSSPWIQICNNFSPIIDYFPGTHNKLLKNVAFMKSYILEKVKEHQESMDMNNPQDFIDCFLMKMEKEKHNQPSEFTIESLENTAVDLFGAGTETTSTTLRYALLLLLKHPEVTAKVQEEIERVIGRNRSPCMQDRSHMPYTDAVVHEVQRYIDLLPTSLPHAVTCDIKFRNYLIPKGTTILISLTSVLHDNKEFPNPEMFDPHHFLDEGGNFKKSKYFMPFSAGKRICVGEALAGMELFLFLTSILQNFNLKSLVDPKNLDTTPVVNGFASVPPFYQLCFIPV
Sequence of Tyrosine-protein kinase Srms (Homo sapiens) (Q9H3Y6 whole entry): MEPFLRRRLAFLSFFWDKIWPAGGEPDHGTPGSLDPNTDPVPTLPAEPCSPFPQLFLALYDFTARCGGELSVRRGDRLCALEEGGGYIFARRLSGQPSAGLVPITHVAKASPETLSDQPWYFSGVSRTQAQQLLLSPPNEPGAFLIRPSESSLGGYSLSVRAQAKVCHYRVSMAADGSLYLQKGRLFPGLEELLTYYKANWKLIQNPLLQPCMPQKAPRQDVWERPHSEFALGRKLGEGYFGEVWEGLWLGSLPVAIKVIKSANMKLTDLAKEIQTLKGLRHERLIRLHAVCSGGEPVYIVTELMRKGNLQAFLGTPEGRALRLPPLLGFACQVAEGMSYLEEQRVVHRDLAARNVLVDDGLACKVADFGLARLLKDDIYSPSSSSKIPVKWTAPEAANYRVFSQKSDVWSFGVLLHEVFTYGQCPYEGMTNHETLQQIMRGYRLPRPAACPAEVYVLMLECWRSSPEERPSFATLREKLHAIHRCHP
Sequence of Tyrosine-protein kinase Yes (Homo sapiens) (P07947 2-543 limits assumed): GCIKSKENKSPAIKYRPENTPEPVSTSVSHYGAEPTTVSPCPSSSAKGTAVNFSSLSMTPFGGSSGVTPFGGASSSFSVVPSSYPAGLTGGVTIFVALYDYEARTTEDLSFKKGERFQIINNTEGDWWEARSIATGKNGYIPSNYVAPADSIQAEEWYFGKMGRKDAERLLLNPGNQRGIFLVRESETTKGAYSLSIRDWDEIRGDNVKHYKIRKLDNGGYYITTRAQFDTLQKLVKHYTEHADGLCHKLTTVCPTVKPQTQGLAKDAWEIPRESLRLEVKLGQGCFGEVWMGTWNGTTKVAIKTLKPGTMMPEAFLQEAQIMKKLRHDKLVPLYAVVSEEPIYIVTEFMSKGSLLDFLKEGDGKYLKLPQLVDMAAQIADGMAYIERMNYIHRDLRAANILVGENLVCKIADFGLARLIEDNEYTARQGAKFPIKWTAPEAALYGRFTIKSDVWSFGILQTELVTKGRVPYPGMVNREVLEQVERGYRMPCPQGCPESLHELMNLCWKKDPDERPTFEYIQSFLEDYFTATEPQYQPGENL
Sequence of Tyrosine-protein kinase FRK (Homo sapiens) (P42685 whole entry): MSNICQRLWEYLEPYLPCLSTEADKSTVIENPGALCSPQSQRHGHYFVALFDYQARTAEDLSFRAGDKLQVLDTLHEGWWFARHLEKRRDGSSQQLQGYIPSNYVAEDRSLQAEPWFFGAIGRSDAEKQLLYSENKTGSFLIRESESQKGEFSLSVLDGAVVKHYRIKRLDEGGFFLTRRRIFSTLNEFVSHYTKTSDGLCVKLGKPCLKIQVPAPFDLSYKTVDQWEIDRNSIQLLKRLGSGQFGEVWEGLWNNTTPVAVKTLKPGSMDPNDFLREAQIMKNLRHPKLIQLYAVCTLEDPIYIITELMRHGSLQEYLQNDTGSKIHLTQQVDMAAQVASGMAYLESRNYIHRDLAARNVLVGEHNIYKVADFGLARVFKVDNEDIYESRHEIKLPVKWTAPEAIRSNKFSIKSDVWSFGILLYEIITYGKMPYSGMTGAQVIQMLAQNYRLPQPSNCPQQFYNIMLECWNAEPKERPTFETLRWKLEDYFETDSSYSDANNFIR
Sequence of Tyrosine-protein kinase HCK (Homo sapiens) (P08631 2-526 limits assumed): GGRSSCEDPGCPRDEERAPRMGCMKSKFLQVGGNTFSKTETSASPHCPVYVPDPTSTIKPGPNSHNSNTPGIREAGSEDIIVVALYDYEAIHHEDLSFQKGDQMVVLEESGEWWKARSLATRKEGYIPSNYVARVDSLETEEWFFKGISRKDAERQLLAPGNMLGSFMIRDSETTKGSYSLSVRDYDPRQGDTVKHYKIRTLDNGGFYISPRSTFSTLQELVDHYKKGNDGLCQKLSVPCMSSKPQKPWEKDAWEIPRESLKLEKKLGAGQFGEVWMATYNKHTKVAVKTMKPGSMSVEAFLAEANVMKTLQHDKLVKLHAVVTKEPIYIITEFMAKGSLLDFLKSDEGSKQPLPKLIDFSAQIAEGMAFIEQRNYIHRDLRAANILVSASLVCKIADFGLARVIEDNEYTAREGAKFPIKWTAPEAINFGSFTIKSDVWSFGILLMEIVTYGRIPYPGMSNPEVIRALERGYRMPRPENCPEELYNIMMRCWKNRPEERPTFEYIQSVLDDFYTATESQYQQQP
Sequence of Proto-oncogene tyrosine-protein kinase Src (Homo sapiens) (P12931 2-536 limits assumed): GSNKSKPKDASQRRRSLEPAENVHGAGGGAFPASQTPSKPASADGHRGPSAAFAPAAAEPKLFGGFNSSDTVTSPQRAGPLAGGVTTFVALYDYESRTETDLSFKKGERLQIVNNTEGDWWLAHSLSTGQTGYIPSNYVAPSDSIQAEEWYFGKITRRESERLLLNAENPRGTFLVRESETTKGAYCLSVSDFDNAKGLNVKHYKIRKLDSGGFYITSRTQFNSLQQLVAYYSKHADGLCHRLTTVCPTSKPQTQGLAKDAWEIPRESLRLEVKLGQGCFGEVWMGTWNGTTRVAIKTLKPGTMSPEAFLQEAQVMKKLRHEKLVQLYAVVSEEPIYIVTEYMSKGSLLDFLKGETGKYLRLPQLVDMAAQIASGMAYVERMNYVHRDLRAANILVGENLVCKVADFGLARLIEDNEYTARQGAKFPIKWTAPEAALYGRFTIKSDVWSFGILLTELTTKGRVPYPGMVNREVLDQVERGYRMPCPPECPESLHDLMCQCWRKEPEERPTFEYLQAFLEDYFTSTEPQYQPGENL
Sequence of Tyrosine-protein kinase Fgr (Homo sapiens) (P09769 2-529 limits assumed): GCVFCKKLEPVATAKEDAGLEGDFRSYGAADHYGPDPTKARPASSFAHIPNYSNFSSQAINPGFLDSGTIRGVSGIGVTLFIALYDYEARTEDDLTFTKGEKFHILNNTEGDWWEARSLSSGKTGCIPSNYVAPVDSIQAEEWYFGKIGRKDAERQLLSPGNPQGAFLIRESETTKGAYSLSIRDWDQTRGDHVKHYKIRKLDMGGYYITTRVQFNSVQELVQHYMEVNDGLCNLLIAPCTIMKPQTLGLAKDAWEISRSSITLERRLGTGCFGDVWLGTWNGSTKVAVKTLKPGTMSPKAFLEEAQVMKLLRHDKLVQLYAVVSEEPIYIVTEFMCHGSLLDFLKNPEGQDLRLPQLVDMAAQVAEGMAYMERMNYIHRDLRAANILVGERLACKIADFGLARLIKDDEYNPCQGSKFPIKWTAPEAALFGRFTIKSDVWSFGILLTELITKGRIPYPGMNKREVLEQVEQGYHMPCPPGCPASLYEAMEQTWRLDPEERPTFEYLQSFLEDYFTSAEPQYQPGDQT

The molecule `COC(C)(C)CCn1nc(Nc2c(C)cccc2C)c2cnc(Nc3ccc(OCCN4CCCC4)c(F)c3)nc21` came in with a half-maximal inhibitory concentration (IC50) in series [1] of 20 nM.
On the same count and under the same terms, the figure for `c1ccc(-c2oc3ncnc(NC[C@@H]4CCCO4)c3c2-c2ccccc2)cc1` is 620 nM.
The molecule `Nc1nccn2c(C3CCC3)nc(-c3ccc(C(O)c4ccccc4)cc3)c12` (stereo not given) had an IC50 in series [2] of 280 nM.
`CC(O)(c1ccccc1)c1ccc(-c2nc([C@H]3C[C@@](C)(O)C3)n3ccnc(N)c23)cc1` (mixture of isomers): in series [3], the clearance is 89 mL/min/kg. For the same molecule, in series [4], the Vd worked out at 3.3 L/kg. The molecule also gave a half-life in series [5] of 2.6 h. In addition, the bioavailability in [6] stood at 105%. Moreover, the AUC in [7] is 3940 ng·h/mL. This molecule also came in with a Cmax in series [8] of 4.6 µM.
With `c1ccc(-c2c(-c3ccc(OCCN4CCCC4)cc3)[nH]c3ncnc(NCC4SCCS4)c23)cc1`, in series [1], the IC50 is 10 nM. That is a double-digit nanomolar value.
On to `COc1cc(Oc2ccccc2)ccc1-c1nc([C@H]2C[C@@](C)(O)C2)n2ccnc(N)c12`, for which the inhibition in [9], in [10], in series [11], in series [12], in series [13] and in series [14] was greater than 80% in each case. Moreover, the inhibition in series [15], in series [16], in series [17], in [18], in series [19] and in series [20] was greater than 80% each time. The molecule also came in with an inhibition in series [28] of 100%. Moreover, the figures for the Papp in [21] and in series [22] were 591 ×10⁻⁶ cm/s and 280 ×10⁻⁶ cm/s, respectively. Besides, the solubility in series [23] was greater than 100 µM. Besides, the IC50 in series [24], in series [25], in series [26] and in series [27] was greater than 20000 nM each time. For the same molecule, the clearance in series [3] was 39 mL/min/kg. Further, the Vd in series [4] was determined as 1.8 L/kg. Moreover, the half-life in [5] is 3.8 h. The bioavailability in series [6] stood at 98%. In series [7], this molecule had an AUC of 8480 ng·h/mL. The same molecule gave a Cmax in series [8] of 5.9 µM.
In the case of `C[C@]1(O)C[C@@H](c2nc(-c3ccc(Oc4ccccc4)cc3)c3c(N)nccn32)C1`, the clearance in series [3] is 62 mL/min/kg. In series [4], the Vd came out at 1.7 L/kg. The molecule further gave a half-life in [5] of 4.9 h. Moreover, the bioavailability in series [6] came to 87%. This molecule also showed an AUC in series [7] of 4680 ng·h/mL. Moreover, in [8], the concentration peaked (Cmax) at 11.2 µM.
Molecule `C[C@]1(O)C[C@@H](c2nc(-c3ccc(C(F)(F)c4ccccc4)cc3)c3c(N)nccn32)C1` displayed a clearance in series [3] of 63 mL/min/kg. Besides, the Vd in [4] was determined as 1.7 L/kg. The same molecule gave a half-life in series [5] of 4.3 h. Moreover, the F in [29] is recorded as 160%. This molecule came in with an AUC in series [7] of 8540 ng·h/mL. In series [8], this molecule registered a Cmax of 5 µM.
`Nc1nccn2c(C3CCC3)nc(-c3ccn(Cc4ccccc4)c(=O)c3)c12` displayed an IC50 in [2] greater than 10000 nM.
In series [3], `Nc1nccn2c(C3CCC3)nc(-c3ccc(Oc4ccccc4)cc3)c12` registered a clearance of 135 mL/min/kg. The Vd in series [4] was determined as 9 L/kg. Also, in series [5], the half-life is 5.5 h. For the same molecule, the bioavailability in series [6] was 50%. In series [7], the AUC was determined as 1240 ng·h/mL. Moreover, in [8], the peak level (Cmax) was 0.9 µM.

A word on the IC50: it is the concentration that inhibits the measured activity by half. Usually clearance stands for a measure of how efficiently the substance is removed, as volume per time. A high value points to a high capacity for elimination. Broadly, the half-life is how long it takes for the measured level to halve. A word on the AUC: it is concentration integrated over time. As a reminder, the Cmax is the peak of the concentration-time curve. By inhibition is commonly meant the drop in the measured response relative to a control, in per cent. As a reminder, the solubility is the dissolved amount per volume that the medium holds.
